Assay results published in PubChem BioAssay (NCI).
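Method: 48-hour compound exposure of cells in 96-well plates, five concentrations, linear interpolation of endpoints. GI50 marks 50% less growth. TGI: concentration producing complete growth inhibition.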

Tests used:
Experiment in all cases: inhibition of tumour cell growth, NCI panel, 48 h
SN12C renal = system: SN12C renal
OVCAR-3 ovarian = system: OVCAR-3 ovarian
K-562 leukemia = system: K-562 leukemia
UACC-62 melanoma = system: UACC-62 melanoma
HOP-92 NSCLC = system: HOP-92 NSCLC
HT29 colon = system: HT29 colon
HCT-116 colon = system: HCT-116 colon
SNB-19 CNS = system: SNB-19 CNS
MDA-MB-435 = system: MDA-MB-435
SF-539 CNS = system: SF-539 CNS
SW-620 colon = system: SW-620 colon
DU-145 prostate = system: DU-145 prostate
NCI/ADR-RES ovarian = system: NCI/ADR-RES ovarian
SK-MEL-5 melanoma = system: SK-MEL-5 melanoma
HCC-2998 colon = system: HCC-2998 colon
MOLT-4 leukemia = system: MOLT-4 leukemia
MALME-3M melanoma = system: MALME-3M melanoma
CCRF-CEM leukemia = system: CCRF-CEM leukemia
HS 578T breast = system: HS 578T breast
HL-60(TB) leukemia = system: HL-60(TB) leukemia
NCI-H522 lung = system: NCI-H522 lung
T-47D breast = system: T-47D breast
SF-268 CNS = system: SF-268 CNS
SK-MEL-28 melanoma = system: SK-MEL-28 melanoma
786-0 renal = system: 786-0 renal
NCI-H460 lung = system: NCI-H460 lung
IGROV1 ovarian = system: IGROV1 ovarian
A549 NSCLC = system: A549 NSCLC
OVCAR-4 ovarian = system: OVCAR-4 ovarian

Question: Which GI50 (SN12C renal) does the source give for `Cc1nc(Nc2ccccn2)sc1C(=O)CC(SCC(=O)Nc1ccc(Cl)cc1)c1ccccc1F` (stereo not drawn) here?
Answer: 2.72 µM

Question: And the TGI (SN12C renal)?
Answer: 10.5 µM

Question: And the GI50 (OVCAR-3 ovarian)?
Answer: 1.53 µM

Question: What about the TGI (OVCAR-3 ovarian) of the same molecule?
Answer: 11.6 µM

Question: And the GI50 (K-562 leukemia)?
Answer: > 100 µM

Question: What about the TGI (K-562 leukemia) of the same molecule?
Answer: > 100 µM

Question: And the GI50 (UACC-62 melanoma)?
Answer: 2.24 µM

Question: And the TGI (UACC-62 melanoma)?
Answer: 10.3 µM

Question: What about the GI50 (HOP-92 NSCLC) of the same molecule?
Answer: 4.94 µM

Question: What about the TGI (HOP-92 NSCLC) of the same molecule?
Answer: 25.9 µM

Question: What about the GI50 (HT29 colon) of the same molecule?
Answer: 2.16 µM

Question: And the TGI (HT29 colon)?
Answer: 5.44 µM

Question: What about the GI50 (HCT-116 colon) of the same molecule?
Answer: 2.2 µM

Question: What about the TGI (HCT-116 colon) of the same molecule?
Answer: 6.46 µM

Question: And the GI50 (SNB-19 CNS)?
Answer: 3.28 µM

Question: And the TGI (SNB-19 CNS)?
Answer: 14.4 µM

Question: And the GI50 (MDA-MB-435)?
Answer: 1.02 µM

Question: And the TGI (MDA-MB-435)?
Answer: 2.78 µM

Question: What about the GI50 (SF-539 CNS) of the same molecule?
Answer: 2.02 µM

Question: What about the TGI (SF-539 CNS) of the same molecule?
Answer: 4.41 µM

Question: What about the GI50 (SW-620 colon) of the same molecule?
Answer: 2.56 µM

Question: And the TGI (SW-620 colon)?
Answer: 11.7 µM

Question: What about the GI50 (DU-145 prostate) of the same molecule?
Answer: 3.34 µM

Question: And the TGI (DU-145 prostate)?
Answer: 13.2 µM

Question: What about the GI50 (NCI/ADR-RES ovarian) of the same molecule?
Answer: 1.81 µM

Question: And the TGI (NCI/ADR-RES ovarian)?
Answer: 5.44 µM

Question: What about the GI50 (SK-MEL-5 melanoma) of the same molecule?
Answer: 2.2 µM

Question: And the TGI (SK-MEL-5 melanoma)?
Answer: 5.86 µM

Question: And the GI50 (HCC-2998 colon)?
Answer: 3.44 µM

Question: What about the TGI (HCC-2998 colon) of the same molecule?
Answer: 13.8 µM

Question: And the GI50 (MOLT-4 leukemia)?
Answer: > 100 µM

Question: And the TGI (MOLT-4 leukemia)?
Answer: > 100 µM

Question: And the GI50 (MALME-3M melanoma)?
Answer: 4.91 µM

Question: And the TGI (MALME-3M melanoma)?
Answer: 19.6 µM

Question: What about the GI50 (CCRF-CEM leukemia) of the same molecule?
Answer: 2.39 µM

Question: What about the TGI (CCRF-CEM leukemia) of the same molecule?
Answer: > 100 µM

Question: And the GI50 (HS 578T breast)?
Answer: 2.14 µM

Question: And the TGI (HS 578T breast)?
Answer: 6.17 µM

Question: What about the GI50 (HL-60(TB) leukemia) of the same molecule?
Answer: > 100 µM

Question: And the TGI (HL-60(TB) leukemia)?
Answer: > 100 µM

Question: What about the GI50 (NCI-H522 lung) of the same molecule?
Answer: 2.22 µM

Question: And the TGI (NCI-H522 lung)?
Answer: 6.4 µM

Question: And the GI50 (T-47D breast)?
Answer: 2.28 µM

Question: And the TGI (T-47D breast)?
Answer: 9.79 µM

Question: What about the GI50 (SF-268 CNS) of the same molecule?
Answer: 3.74 µM

Question: What about the TGI (SF-268 CNS) of the same molecule?
Answer: 17.3 µM

Question: And the GI50 (SK-MEL-28 melanoma)?
Answer: 5.45 µM

Question: And the TGI (SK-MEL-28 melanoma)?
Answer: 19.7 µM

Question: What about the GI50 (786-0 renal) of the same molecule?
Answer: 3.74 µM

Question: And the TGI (786-0 renal)?
Answer: 14.3 µM

Question: And the GI50 (NCI-H460 lung)?
Answer: 2.23 µM

Question: What about the TGI (NCI-H460 lung) of the same molecule?
Answer: 5.22 µM

Question: What about the GI50 (IGROV1 ovarian) of the same molecule?
Answer: 3.87 µM

Question: What about the TGI (IGROV1 ovarian) of the same molecule?
Answer: 20.7 µM

Question: And the GI50 (A549 NSCLC)?
Answer: 3.15 µM

Question: And the TGI (A549 NSCLC)?
Answer: 22.8 µM

Question: And the GI50 (OVCAR-4 ovarian)?
Answer: 11.4 µM

Question: And the TGI (OVCAR-4 ovarian)?
Answer: 71.4 µM
